What was measured:
[1] = test system: anti-cotinine antibody (SEQ ID NO: 9/10, humanized version); test: SPR binding of anti-cotinine antibody to ARM compounds, Biacore 8k, 25° C., humanized antibody (Example 202); settings: time reference 3 (association 360 s, dissociation 600 s, 30 μl/min)
Text: (§1) Anti-cotinine antibodies having a heavy chain sequence of SEQ ID NO: 9 and a light chain sequence of SEQ ID NO: 10 (humanized version) or a heavy chain sequence of SEQ ID NO: 11 and a light chain sequence of SEQ ID NO: 12 (rabbit version) were captured via the Fc domain to a protein A or A/G surface on flow cell 2 of a CMS sensor chip using the Biacore 8k.
(§2) After antibody capture, a 1500 second wait step was included to reduce drift in the binding step. ARM compounds of Formula (I) were then flowed over the captured antibodies at varying top concentrations ranging from 250 nM to 4 μM (see Table 6 below for top concentration values). The top concentration was diluted 4-fold over 5 dilutions (with a 0 nM compound cycle included to blank subtract the data). Association and dissociation times of the ARMs compounds of Formula (I) varied between experiments as follows and indicated in Table 6 below: reference 1-association for 600 seconds and dissociation for 1200 seconds at 20 μl/min; reference 2-association for 240 seconds and dissociation for 300 seconds at 30 μl/min; reference 3-association for 360 seconds and dissociation for 600 seconds at 30 μl/min. Anti-cotinine antibody bound to the protein A or A/G surface was regenerated using 50 mM NaOH. Experiments were run at 25° C. at pH 7.4 using HBS-EP+ buffer using Biacore 8K control software and evaluated using Biacore Insight Evaluation software. Curves were fit with the 1:1 kinetic fit inherent to the software, utilising a local Rmax and local drift setting.
(§3) Anti-cotinine antibody was tested for binding to ARMs compounds of Formula (I) of the invention in the above assay in or more experimental runs and the results are shown in Table 6 below. Affinity is reported as a pKd value. The pKd value is the negative log of the Kd value, wherein the Kd value is the dissociation constant measured in molar (M) as noted above. For compounds tested in more than one experimental run, the pKd value is reported as an average.

[2] = molecular target: anti-cotinine antibody (SEQ ID NO: 11/12, rabbit version); test: SPR binding of anti-cotinine antibody to ARM compounds, Biacore 8k, 25° C., rabbit antibody (Example 202)
Text: as §1, §2, §3

[3] = molecular target: T1, CHOK1 cells engineered to overexpress human CCR2 (Homo sapiens, UniProt P41597); test: Antibody dependent cellular cytotoxicity (ADCC) reporter assay (Example 199); type: cell-based; settings: with anti-cotinine antibody (SEQ ID NO: 11/12), Jurkat FcγRIIIa NFAT-luciferase reporter cells, 12-18 hours, EC50 in molar, average or individual runs; for EC50: read-out: ADCC Reporter Assay pEC50 (converted)
T1 construct: expressed in transfected cells; host or cells: CHOK1
Description: An antibody dependent cellular cytoxocity reporter assay was conducted using the following four assay components: (i) ARM compound of Formula (I) targeting CCR2 (concentrations ranging from […] to 10 μM) (ii) anti-cotinine antibody having a heavy chain sequence of SEQ ID NO: 11 and a light chain sequence of SEQ ID NO: 12 (rabbit variable region with human IgG1 Fc domain containing a DE mutation (S239D/1332E)) (concentrations ranging from 0.01 μg/mL to 200 μg/mL); (iii) target cells: CHOK1 cells engineered to overexpress either human CCR2 (typically 1000-20,000 cells per well) and (iv) reporter cells: Jurkat cells engineered to express FcγRIIIa with the reporter gene luciferase under the control of the NFAT promoter (typically 3000-75,000 cells per well). Reagents were combined in a final volume of 20 μL in a 384-well tissue culture treated plate. All four assay components were incubated together for about 12-18 hours. Thereafter, BioGlo Detection reagent (Promega) was added to the wells to lyse the cells and provide a substrate for the luciferase reporter protein. Luminescence signal was measured on a microplate reader and signal: background was calculated by dividing the signal of a test well by the signal obtained when no heterobivalent compound of Formula (I) was added. EC50 calculations were done using Graphpad Prism Software, specifically a nonlinear regression curve fit (Y=Bottom+(Top−Bottom)/(1+10A((LogEC50−X)*HillSlope))).
ARMs compounds of Formula (I) of the invention were tested for ADCC activity in the above assay in or more experimental runs and the results are shown in Table 3 below. Potency of the compounds of Formula (I) of the invention is reported as a pEC50 value. The pEC50 value is the negative log of the EC50 value, wherein the EC50 value is the half maximal effective concentration measured in molar (M). For compounds tested in more than one experimental run, the pEC50 value is reported as an average.

[4] = Blood drug concentration analysis by LC-MS/MS after IV dosing with anti-cotinine antibody (Example 201); type: in vivo; settings: C57 background, human CCR2 knock-in, mouse; hCCR2 knock-in mice, IV 0.1 mpk compound + 10 mpk anti-cotinine antibody, whole blood, 48 hours post-dose; read-out: Exposure of Compound of Formula (I) 48 hours post-dose
Description: After bleeding, each mouse was sacrificed by cervical dislocation. […] Flow Cytometry Analysis:
Samples were analyzed on Q-Trap. […] The total run time was 2 minutes.

Row | SMILES | EC50 [3] [nM] | concentration at 48 h [4] [ng/mL] | also measured
1 | CN1C(=O)C[C@H](C(=O)NCCO[C@H]2CC[C@H](OCCCC(=O)N[C@H]3CC[C@H](C(=O)N[C@@H]4C[C@H](NC(C)(C)C)CC[C@@H]4N4CC[C@H](Nc5ncnc6ccc(C(F)(F)F)cc56)C4=O)CC3)CC2)[C@H]1c1cccnc1 [Example 10, (2S,3S)-N-(2-(((1R,4S)-4-(4-(((1R,4R)-4-(((1R,2S,5R)-5-(tert-Butylamino)-2-((S)-2-oxo-3-((6-(trifluoromethyl)quinazolin-4-yl)amino)pyrrolidin-1-yl)cyclohexyl)carbamoyl)cyclohexyl)amino)-4-oxobutoxy)cyclohexyl)oxy)ethyl)-1-methyl-5-oxo-2-(pyridin-3-yl)pyrrolidine-3-carboxamide] | – | – | ka [1]: 1.42e+06 M⁻¹ s⁻¹; kd [1]: 0.000484 s⁻¹; pKd [1]: 9.47; pKd ([2]; time reference 2 (association 240 s, dissociation 300 s, 30 μl/min)): Poor fit; pKd ([2]; time reference 3 (association 360 s, dissociation 600 s, 30 μl/min)): kd outside
2 | CN1C(=O)C[C@H](C(=O)NCCOCCOCCOCCOCCOCCC(=O)N[C@@H]2C[C@H](NC(C)(C)C)CC[C@@H]2N2CC[C@H](Nc3ncnc4ccc(C(F)(F)F)cc34)C2=O)[C@H]1c1cccnc1 [Example 37, (2S,3S)-N-(18-(((1R,2S,5R)-5-(tert-Butylamino)-2-((S)-2-oxo-3-((6-(trifluoromethyl)quinazolin-4-yl)amino)pyrrolidin-1-yl)cyclohexyl)amino)-18-oxo-3,6,9,12,15-pentaoxaoctadecyl)-1-methyl-5-oxo-2-(pyridin-3-yl)pyrrolidine-3-carboxamide] | 12.6 | 48.7 | –
3 | CN1C(=O)C[C@H](C(=O)NCCOCCOCCOCCOCCOCCOCCC(=O)N[C@@H]2C[C@H](NC(C)(C)C)CC[C@@H]2N2CC[C@H](Nc3ncnc4ccc(C(F)(F)F)cc34)C2=O)[C@H]1c1cccnc1 [Example 38, (2S,3S)-N-(21-(((1R,2S,5R)-5-(tert-Butylamino)-2-((S)-2-oxo-3-((6-(trifluoromethyl)quinazolin-4-yl)amino)pyrrolidin-1-yl)cyclohexyl)amino)-21-oxo-3,6,9,12,15,18-hexaoxahenicosyl)-1-methyl-5-oxo-2-(pyridin-3-yl)pyrrolidine-3-carboxamide] | 2.51 | 47.6 | –
4 | CC(C)N(C)[C@@H]1CC[C@H](N2CC[C@H](Nc3ncnc4ccc(C(F)(F)F)cc34)C2=O)[C@H](NC(=O)CCOCCOCCOCCOCCOCCNC(=O)[C@H]2CC(=O)N(C)[C@@H]2c2cccnc2)C1 [Example 40, (2S,3S)-N-(18-(((1R,2S,5R)-5-(Isopropyl(methyl)amino)-2-((S)-2-oxo-3-((6-(trifluoromethyl)quinazolin-4-yl)amino)pyrrolidin-1-yl)cyclohexyl)amino)-18-oxo-3,6,9,12,15-pentaoxaoctadecyl)-1-methyl-5-oxo-2-(pyridin-3-yl)pyrrolidine-3-carboxamide] | 6.31 | – | –
5 | CC(C)N(C)[C@@H]1CC[C@H](N2CC[C@H](Nc3ncnc4ccc(C(F)(F)F)cc34)C2=O)[C@H](NC(=O)CCOCCOCCOCCOCCOCCOCCNC(=O)[C@H]2CC(=O)N(C)[C@@H]2c2cccnc2)C1 [Example 41, (2S,3S)-N-(21-(((1R,2S,5R)-5-(isopropyl(methyl)amino)-2-((S)-2-oxo-3-((6-(trifluoromethyl)quinazolin-4-yl)amino)pyrrolidin-1-yl)cyclohexyl)amino)-21-oxo-3,6,9,12,15,18-hexaoxahenicosyl)-1-methyl-5-oxo-2-(pyridin-3-yl)pyrrolidine-3-carboxamide] | 2 | – | –
6 | CC(C)N(C)[C@@H]1CC[C@H](N2CC[C@H](Nc3ncnc4ccc(C(F)(F)F)cc34)C2=O)[C@H](NC2CCN(C(=O)CCOCCOCCOCCOCCNC(=O)[C@H]3CC(=O)N(C)[C@@H]3c3cccnc3)CC2)C1 [Example 69, (2S,3S)-N-(15-(4-(((1R,2S,5R)-5-(Isopropyl(methyl)amino)-2-((S)-2-oxo-3-((6-(trifluoromethyl)quinazolin-4-yl)amino)pyrrolidin-1-yl)cyclohexyl)amino)piperidin-1-yl)-15-oxo-3,6,9,12-tetraoxapentadecyl)-1-methyl-5-oxo-2-(pyridin-3-yl)pyrrolidine-3-carboxamide] | 0.316 | 39.9 | –
7 | CC(C)N(C)[C@@H]1CC[C@H](N2CC[C@H](Nc3ncnc4ccc(C(F)(F)F)cc34)C2=O)[C@H](NC(=O)[C@H]2CC[C@@H](NC(=O)CCCOCCCCOCCNC(=O)[C@H]3CC(=O)N(C)[C@@H]3c3cccnc3)CC2)C1 [Example 122, (2S,3S)-N-(2-(4-(4-(((1S,4s)-4-(((1R,2S,5R)-5-(Isopropyl(methyl)amino)-2-((S)-2-oxo-3-((6-(trifluoromethyl)quinazolin-4-yl)amino)pyrrolidin-1-yl)cyclohexyl)carbamoyl)cyclohexyl)amino)-4-oxobutoxy)butoxy)ethyl)-1-methyl-5-oxo-2-(pyridin-3-yl)pyrrolidine-3-carboxamide] | – | – | ADCC Reporter Assay pEC50 [3]: 9
8 | CN1C(=O)C[C@H](C(=O)NCCOCCNC(=O)[C@H]2C[C@H](NC(=O)CCOCCC(=O)N[C@@H]3C[C@H](NC(C)(C)C)CC[C@@H]3N3CC[C@H](Nc4ncnc5ccc(C(F)(F)F)cc45)C3=O)C2)[C@H]1c1cccnc1 [Example 188, (2S,3S)-N-(2-(2-((1R,3S)-3-(3-(3-(((1R,2S,5R)-5-(tert-butylamino)-2-((S)-2-oxo-3-((6-(trifluoromethyl)quinazolin-4-yl)amino)pyrrolidin-1-yl)cyclohexyl)amino)-3-oxopropoxy)propanamido)cyclobutane-1-carboxamido)ethoxy)ethyl)-1-methyl-5-oxo-2-(pyridin-3-yl)pyrrolidine-3-carboxamide] | 0.501 | 73 | –

— US12521393B2, “Cytotoxicity targeting chimeras for CCR2-expressing cells” (GLAXOSMITHKLINE INTELLECTUAL PROPERTY DEVELOPMENT LIMITED, priority 2021, dated 2026)
